Test results from patent US6541463B1, “Inhibitors of type 5 and type 3 17β-hydroxysteroid dehydrogenase and methods for their use” (Endorecherche, Inc., priority 1998, dated 2003).

Columns and labels:
[1] = biological target: T1, androgen receptor (Rattus norvegicus, UniProt P15207); test: Androgen receptor (AR) assay: inhibition of [3H]R1881 binding, prostate cytosol
T1 construct: from tissue; host or cells: ventral prostate cytosol of gonadectomized male Sprague-Dawley rats
T1 sequence (P15207 1-902): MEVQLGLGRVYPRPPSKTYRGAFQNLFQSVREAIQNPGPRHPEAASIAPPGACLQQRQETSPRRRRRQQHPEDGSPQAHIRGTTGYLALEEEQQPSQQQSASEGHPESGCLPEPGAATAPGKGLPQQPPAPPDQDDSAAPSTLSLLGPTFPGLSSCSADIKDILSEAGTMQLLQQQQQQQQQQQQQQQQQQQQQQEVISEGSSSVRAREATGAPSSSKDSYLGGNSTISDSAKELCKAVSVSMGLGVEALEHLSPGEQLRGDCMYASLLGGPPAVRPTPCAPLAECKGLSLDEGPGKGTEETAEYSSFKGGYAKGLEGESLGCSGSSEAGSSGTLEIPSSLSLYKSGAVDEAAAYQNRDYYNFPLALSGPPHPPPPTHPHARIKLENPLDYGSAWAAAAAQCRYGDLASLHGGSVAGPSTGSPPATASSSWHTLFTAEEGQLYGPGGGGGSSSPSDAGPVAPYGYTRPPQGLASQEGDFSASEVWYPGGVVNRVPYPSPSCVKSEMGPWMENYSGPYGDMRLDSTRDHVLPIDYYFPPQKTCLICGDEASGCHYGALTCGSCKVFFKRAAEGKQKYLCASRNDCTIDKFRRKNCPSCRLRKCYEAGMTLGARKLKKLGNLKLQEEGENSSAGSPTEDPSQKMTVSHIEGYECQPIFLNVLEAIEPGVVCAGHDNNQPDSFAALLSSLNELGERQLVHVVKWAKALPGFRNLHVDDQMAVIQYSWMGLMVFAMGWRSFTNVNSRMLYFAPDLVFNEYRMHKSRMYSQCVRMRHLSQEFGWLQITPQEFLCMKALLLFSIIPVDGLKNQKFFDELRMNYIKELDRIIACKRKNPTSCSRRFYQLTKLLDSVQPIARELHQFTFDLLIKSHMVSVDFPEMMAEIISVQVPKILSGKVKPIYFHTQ
Description: The manner in which the percentage of inhibition is determined is described in “Other Tests; D-Androgen Receptor (AR) Assays”. Lower numbers are desirable.
Male Sprague-Dawley rats (Crl: CD(SD)Br) weighing 200-300 g were obtained from Charles-River Inc. (St-Constant, Québec, Canada). The rats were gonadectomized under general anesthesia (Isoflurane) and killed by cervical dislocation 24 hours later. The ventral prostates were rapidly removed, dissected free from adhering tissue and frozen on dry-ice. Prostates were kept at −80° C. until assay.
All subsequent steps were performed at 0-4° C. Prostates were homogenized in 5 vol (wt/vol) of buffer A (25 mM Tris-HCl, 1.5 mM EDTA disodium salt, 10 mM α-monothioglycerol, 10% glycerol, and 10 mM sodium molybdate, pH 7.4), using a Polytron PT-10 homogenizer (Brinkman Instruments, Canada) at a setting of 5 for three periods of 10 sec, with intervals of 10 sec for cooling. The homogenate was then centrifuged at 105,000×g for 60 min in a Beckman L5-65 ultracentrifuge (Fullerton, Calif.).
Androgen binding was measured using the hydroxylapatite assay (HAP). In brief, the radioactive steroid [^3H]R1881 solubilized in ethanol was diluted into buffer A. Aliquots of prostate cytosol preparation (0.1 ml) were then incubated with 8 nM [^3H]R1881 (0.1 ml, ˜200,000 cpm) in the presence or absence of the indicated concentrations of unlabeled compounds (0.1 ml, prepared in buffer A containing 10% ethanol) for 16-18 h at 0-4° C. […] Unbound steroids were separated by incubation for 40 min at 0-4° C. with 0.3 ml HAP prepared in buffer P (50 mM, Tris-HCl, 10 mM KH2PO4, pH 7.4) as follows: 10 g HAP were washed with buffer P until the supernatant reached a pH of 7.4 and then following centrifugation and decantation of the supernatant, 37.5 ml of buffer P were added. After incubation with HAP and 10 minutes of centrifugation at 1,000×g, the pellet was washed 3 times with 1 ml buffer P. Thereafter, the radioactivity was extracted from the pellet by incubation at room temperature for 60 minutes with 1 ml EtOH. After centrifugation, the supernatant was decanted into a scintillation vial and the pellet was extracted again with ethanol.

[2] = test system: progesterone receptor; test: Progesterone receptor assay: inhibition of [3H]R5020 binding, uterine cytosol; set-up: species or system rat
Description: The manner in which the percentage of inhibition is determined is described in “Other Tests; E-Progesterone Receptor Assay”. Lower numbers are desirable.
[17α-methyl-^3H]-promegestone (R5020) (84 Ci/mmol) and the corresponding unlabeled compound were purchased from New England Nuclear (Lachine, Québec, Canada). All other chemicals were of analytical grade.
Stock solutions of the unlabeled steroids were kept at 4° C. in ethanol. The desired steroid solutions were then prepared by appropriate dilution in buffer B (10 mM Tris-HCl, 1.5 mM EDTA, 10 mM α-monothioglycerol, pH 7.4) containing 30% ethanol.
Female Sprague-Dawley rats weighing 200-300 g were obtained from Charles-River Inc. (St-Constant, Québec, Canada). The rats were gonadectomized under general anesthesia (Isoflurane) and killed by cervical dislocation 24 hours later. The uteri are rapidly removed, dissected free from adhering tissue and frozen on dry-ice. Tissues were kept at −80° C. until use.
All procedures were performed at 4° C. Tissues were pulverized frozen in dry ice with a Thermovac pulverizer. The samples were then homogenized in 10 vol (w/v) of buffer A (25 mM Tris-HCl, 1.5 mM EDTA, 10 mM α-monothioglycerol, 10% glycerol, 10 mM sodium molybdate, pH 7.4) using a Polytron PT-10 homogenizer (Brinkmann Instruments, Canada) at a setting of 5 for two periods of 10 sec, with intervals of 10 sec for cooling. The homogenate was then centrifuged at 105,000×g for 90 min. The supernatant was used immediately for assay.
Progesterone binding was measured using the dextran-coated charcoal adsorption technique. […] Each concentration was done in triplicate. Assay was ended with 300 μl of DCC (1% Norit A and 0.1% Dextran T-70 in Buffer B). After 10 min of incubation, tubes were centrifuged at 2,000×g for 10 min. and decanted in vials with 6 ml of BCS liquid scintillation (New England Nuclear, Dupont). The radioactivity was measured in a Beckman counter at a counting efficiency of 35%.

Structure (SMILES) | inhibition at 0.01 µM ([1]; Table 4′, E^−8) [%] | % Inhibition Progesterone Receptor E^−6 ([2]; Table 4′, E^−6) [%] | % Inhibition Progesterone Receptor E^−8 ([2]; Table 4′, E^−8) [%] | inhibition at 1 µM ([1]; Table 4′, E^−6) [%] | other results
CC1CCC2(CCC3C4CCc5cc(O)c([N+](=O)[O-])cc5C4CCC32C)OC1=O [EM-1131, 2-Nitro-1,3,5(10)-estratrien-3-ol-17(R)-spiro-2′-(5′-methyl-6′-oxo)tetrahydropyran] | 2 | 10 | 2 |  | % Inhibition Androgen Receptor E^−6 ([1]; Table 4′, E^−6): 1%
CC1(C)CC[C@@]2(CCC3C4CCc5cc(F)ccc5C4CC[C@@]32C)OC1=O (some centres unmarked) [EM-1157-CS] | 0 | 5 | 2 | 0 | 
CC(=O)O[C@]1(C(=O)N(C)C)CCC2C3C=C(C)C4=CC(=O)CC[C@]4(C)C3CC[C@@]21C (some centres unmarked) [EM-1159] |  |  |  |  | % Inhibition Androgen Receptor ([1]; E^−6): 1%; % Inhibition Androgen Receptor ([1]; E^−8): 1%; % Inhibition Progesterone Receptor ([2]; E^−6): 4%; % Inhibition Progesterone Receptor ([2]; E^−8): 2%
CCCCN(C)C(=O)[C@@]1(OC(C)=O)CCC2C3C=C(C)C4=CC(=O)CC[C@]4(C)C3CC[C@@]21C (some centres unmarked) [EM-1165] |  |  |  |  | % Inhibition Androgen Receptor ([1]; E^−6): 1%; % Inhibition Androgen Receptor ([1]; E^−8): 0%; % Inhibition Progesterone Receptor ([2]; E^−6): 7%; % Inhibition Progesterone Receptor ([2]; E^−8): 0%
CC12CCC3c4ccc(F)cc4CCC3C1CCC21CCCC(=O)O1 (centres unmarked) [EM-1170-CS] | 0 | 24 | 1 | 1 | 
CCC[C@]1(F)CC2C3C=CC4=CC(=O)CC[C@]4(C)C3CC[C@]2(C)C1=O (some centres unmarked) [EM-1183] |  |  |  |  | inhibition at 1 µM ([1]; E^−6): 1%; inhibition at 0.01 µM ([1]; E^−8): 0%; % Inhibition Progesterone Receptor E^−6 ([2]; E^−6): 45%; % Inhibition Progesterone Receptor E^−8 ([2]; E^−8): 9%
CC(=O)[C@@]1(OC(=O)CCCCF)CCC2C3C=C(C)C4=CC(=O)CC[C@]4(C)C3CC[C@@]21C (some centres unmarked) [EM-1195-CS] |  |  |  |  | % Inhibition Androgen Receptor ([1]; E^−6): 62%; % Inhibition Androgen Receptor ([1]; E^−8): 1%; % Inhibition Progesterone Receptor ([2]; E^−6): 70%; % Inhibition Progesterone Receptor ([2]; E^−8): 0%
CC(C)C[C@@H]1CC2C3C=CC4=CC(=O)CC[C@]4(C)C3CC[C@]2(C)C1=O (some centres unmarked) [EM-1273-CS] |  |  |  |  | inhibition at 1 µM ([1]; E^−6): 0%; inhibition at 0.01 µM ([1]; E^−8): 0%; % Inhibition Progesterone Receptor E^−6 ([2]; E^−6): 0%; % Inhibition Progesterone Receptor E^−8 ([2]; E^−8): 0%
COc1ccc(CC(=O)O[C@]2(C(C)=O)CCC3C4C=C(C)C5=CC(=O)C=C[C@]5(C)C4CC[C@@]32C)cc1 (some centres unmarked) [EM-1291] |  |  |  |  | % Inhibition Androgen Receptor ([1]; E^−6): 0%; % Inhibition Androgen Receptor ([1]; E^−8): 0%; % Inhibition Progesterone Receptor ([2]; E^−6): 33%; % Inhibition Progesterone Receptor ([2]; E^−8): 0%
C[C@]12CCC(=O)C=C1C=C[C@@H]1[C@@H]2CC[C@]2(C)C(=O)C3(CC4CC4C3)C[C@@H]12 (some centres unmarked) [EM-1299, 4,6-Androstadien-3,17-dione-16-spirobicyclo[3′.1′.0′]-hexane] |  |  |  |  | % Inhibition Androgen Receptor E^−6 ([1]; E^−6): 3%; % Inhibition Androgen Receptor E^−8 ([1]; E^−8): 1%; % Inhibition Progesterone Receptor E^−6 ([2]; E^−6): 0%; % Inhibition Progesterone Receptor E^−8 ([2]; E^−8): 0%
CCS(=O)(=O)Oc1ccc2c(c1)CCC1C2CCC2(C)C1CCC21CCC(C)(C)C(=O)O1 (centres unmarked) [EM-1364-CS] | 0 | 0 | 0 | 0 | 
CC1(C)CCC2(CCC3C4CCc5cc(OS(C)(=O)=O)ccc5C4CCC32C)OC1=O (centres unmarked) [EM-1365-CS] | 0 | 2 | 2 | 0 | 
COCCOc1ccc2c(c1)CCC1C2CCC2(C)C1CCC21CCC(C)(C)C(=O)O1 [EM-1368-CS, 3-Methoxyethoxy-1,3,5(10)-estratrien-17(R)-spiro-2′-(5′,5′-dimethyl-6′-oxo)-tetrahydropyran] | 0 | 3 | 0 | 0 | 
CCOc1ccc2c(c1)CCC1C2CC[C@@]2(C)C1CC[C@@]21CCC(C)(C)C(=O)O1 (stereo partly drawn) [EM-1369, 3-Ethoxy-1,3,5(10)-estratrien-17(R)-spiro-2′-(5′,5′-dimethyl-6′-oxo)-tetrahydropyran] | 0 | 3 | 1 | 1 | 
COc1ccc2c(c1)CCC1C2CCC2(C)C1CCC21CCC(C)(C)C(=O)O1 (centres unmarked) [EM-1370] | 3 | 0 | 0 | 2 | 
COCCOc1cc2c(cc1Cl)C1CCC3(C)C(CCC34CCC(C)(C)C(=O)O4)C1CC2 (centres unmarked) [EM-1371-CS] | 0 | 3 | 0 | 1 | 
CC1(C)CC[C@@]2(CC[C@H]3[C@@H]4CCc5c(cc(Br)c(O)c5Br)[C@H]4CC[C@@]32C)OC1=O [EM-1382-CS] |  | 0 | 2 |  | % Inhibition Androgen Receptor E^−6 ([1]; Table 4′, E^−6): 0%; % Inhibition Androgen Receptor E^−8 ([1]; Table 4′, E^−8): 0%
